Several values for one entry are separate records, joined by “and”; a condition that tells them apart may be missing. Equal values may be shown once.
What was measured:
[1] = system: interaction of Tat with HSPGs on TZM-bl cells; experiment: Inhibition of transcellular transactivation by HSPG competitive antagonists; format: cell-based, human; settings: TZM-bl cells exposed to Tat-B-WT produced in HeLa cells
Procedure: HeLa cells were seeded in 6-well plates at 7.5 × 10^5 cells per well and transfected with 2.5 μg of Tat expression plasmid DNA (Lipofectamine 3000, Invitrogen). After 6 h, the media was replaced with DMEM/10% FBS. Next day, TZM-bl reporter cells were seeded in a 24-well plate, at 1.5 × 10^5 cells per well. Similarly, C20 microglial cells were seeded in a 12-well plate, at 3 × 10^5 cells per well. After allowing 5–6 h for cell attachment, supernatant from the tat-transfected HeLa cells was collected, which was centrifuged at 500 × g for 10 minutes to remove debris and dead cells. Importantly, at this step and all others involving handling of Tat-containing media, siliconized tubes and tips were used to minimize the adsorption of Tat to surfaces. Tat-transfected HeLa supernatants were used to replace either TZM-bl media (400 μL) or C20 media (800 μL), and the cells incubated for 12 h (C20) or 24 h (TZM-bl).
TZM-bl cell lysates were harvested and stored at −80 °C until luciferase activity was measured. Frozen TZM-bl cell lysates were thawed on ice for 30 minutes, centrifuged at 14,000 × g for 2 minutes, and the protein concentration in the supernatants measured by BCA protein assay. […] The side of the plate was gently tapped and each sample was immediately assayed for luciferase activity using a plate-reader, measuring each sample in Relative Light Units (RLU) (PerkinElmer VICTOR-2).

[2] = system: PMA-differentiated THP-1 cells; experiment: Confocal microscopy of labeled CPP uptake; format: cell-based; settings: 1 μM peptide, 37 °C, 30 minutes, trypsin to strip surface-bound CPP, fluorescence 488 nm
293T cells = experiment: Flow cytometry of labeled CPP uptake; format: cell-based, human; settings: for effect of soluble heparin on CPP uptake: 293T cells incubated with labeled CPPs and increasing concentrations of soluble heparin; for decrease of CPP uptake at 4 °C compared with 37 °C: 2 μM CPP, 4 °C (10 min pre-incubation) vs 37 °C
Procedure: 293T cells were plated in 12-well plates at 2.5 × 10^5 cells per well, to achieve approximately 70% - 80% confluence by the next day. Thirty minutes before the experiment, cell medium was changed to low-serum DMEM with 1% Pen-Strep. Cells were washed once with PBS, treated with Tat-CPP in low-serum DMEM, and placed in either a tissue-culture incubator (37 °C/5% CO2) or a refrigerator (4 °C)(samples treated at 4 °C were pre-incubated in refrigerator for 10 minutes before CPP treatment). Cells were gently washed twice with PBS (w/10%FBS), then treated with 300 µl of pre-warmed 0.05% trypsin for 5 min, to detach cells and enzymatically digest surface-bound Tat-CPP. Cells were resuspended in 1 ml PBS (with 10% FBS and 2 mM EDTA), and peptide uptake assessed by flow cytometry (FACScalibur). Live cells were gated using forward-scatter and side-scatter ratio, then interrogated >10,000 live-cell events each for fluorescence signal emission at 488 nm. Data was analyzed using FlowJo software v9.3.3 (FlowJo LLC). To adjust for differences in instrument settings and voltage adjustments between experiments we transformed the raw MFI values within each experiment into values proportional to the greatest MFI reading in that particular experiment. Heparinase enzymes were used to pre-treat cells by combination of Heparinase I and III at 17 IU and 1 IU, respectively, per mL of plain DMEM. Cells were treated with enzymes for 2 h in an 37 °C, then washed with PBS and exposed to CPPs as above.

C20 microglial cells = experiment: TNFα protein in supernatants of Tat-treated microglia (Luminex cytokine detection assay); format: cell-based, human; settings: C20 microglia exposed 24 h to equivalent inputs of Tat-containing HeLa media
Procedure: (§1) C20 microglia were exposed for 24 h, to equivalent inputs of HeLa cell media containing Tat protein (Tat-B*, Tat-B* R57S, Tat-C or Tat-C S57R or empty vector) as described above for cytokine expression. As a control, spent media of HeLa cells transfected with an empty pcDNA 3.1 construct was used. Approximately 50, 000 cells containing a mixture of human fetal neurons and glia plated on 35 mm MatTek plates were treated with 200 µl of spent media from Tat-exposed microglial cultures for 30 h.

[3] = system: h-Hu_C20 human microglial cells; experiment: qRT-PCR of cytokine gene expression in C20 cells exposed to Tat; format: cell-based; settings: equivalent levels of Tat proteins applied; compared with position 57 variant of the same clade
Procedure: We transfected 2 × 10^6 HeLa cells with pEGFP, pcDNA 3.1 and the plasmids expressing the four Tat variants. At 24 hours post transfection, media were collected and Tat ELISA performed to determine the amount of Tat present. C20 microglia (2 × 10^6) were incubated with equal amounts of Tat media for 24 h. PMA (5 ng) or LPS (5 ng) were also included in separate wells as controls. C20 cells were washed with PBS, treated with trypsin, pelleted by centrifugation at 500 × g for 10 minutes, and total cell RNA isolated using an RNeasy Kit (Qiagen). RNA was reverse transcribed in a first-strand cDNA synthesis reaction (GoScript, Promega), using oligo dT primers. The cDNA was diluted to 100 ng per 3 μL in each reaction well, and combined with 2x Taqman Gene Expression Master Mix (ThermoFisher) and Taqman Gene Expression Assay primer-probes: GAPDH (Hs02758991_g1), IL6 (Hs00985639_m1), IL8 (Hs00174103_m1), IL-1β (Hs00174097_m1) or CXCL1 (Hs00236937_m1). Each sample was assayed in triplicate on a 384-well plate, and run under standard qRT-PCR cycling conditions on a 7900HT instrument (ABI).

[4] = system: primary human neuron-astrocyte co-cultures; experiment: Treatment of neurons with spent media from Tat-exposed microglia; format: cell-based; settings: co-cultures treated 30 h with 200 µl spent media from Tat-exposed microglia, neurotubulin staining
Procedure: as §1
For the purpose of imaging of neurons and quantifying axonal/dendritic lengths, neurons treated as above were fixed with 4% PFA for 15 min and washed with 1x PBS. Cells were permeabilized with 0.1% Triton X-100 for 3 minutes and washed as before. Non-specific sites were blocked with 1X SBS buffer (50 mM EDTA, 0.01% Fish Gelatin, 0.1 g BSA, 1% Horse serum in PBS) for 1 h at room temperature and the cells washed. Cells were stained with anti-neurotubulin antibodies, anti-GFAP antibodies and DAPI to stain neurons, glial cells and nuclei respectively. Neuronal images were captured using a Leica Confocal TCS SP5 microscope (Leica Microsystems, Bannockburn, IL). Axonal/dendritic lengths were quantified using Volocity 6.3 software.

[5] = system: LTR-driven luciferase reporter gene in TZM-bl cells; format: cell-based, human

With `Cc1ccc(C(=O)Nc2ccc(S(=O)(=O)O)c3cc(S(=O)(=O)O)cc(S(=O)(=O)O)c23)cc1NC(=O)c1cccc(NC(=O)Nc2cccc(C(=O)Nc3cc(C(=O)Nc4ccc(S(=O)(=O)O)c5cc(S(=O)(=O)O)cc(S(=O)(=O)O)c45)ccc3C)c2)c1` [suramin] the “concentration sufficient to diminish transcellular transactivation of extracellular Tat to near background levels” value [1] was 100 µg/mL.

For “GRKKRRQRRR [CPP-R57, Tat CPP decapeptide (residues 48–57) of HIV-1B, N-terminal HiLyte Fluor 488 tag]”, the “internalization of labeled peptide (confocal microscopy)” value [2] was “higher amount of labeled peptide”, the “effect of soluble heparin on CPP uptake” value (293T cells) was “dose-dependent inhibition of uptake” and the “decrease of CPP uptake at 4 °C compared with 37 °C” value (293T cells; 293T cells, flow cytometry) was ~ 75%. For the same molecule, the “CPP-R57 uptake relative to CPP-S57” value (293T cells; 293T cells, flow cytometry, 2 μM peptide, n = 4) was 3–4 fold.

In the case of “GRKKRRQRRS [CPP-S57, Tat CPP decapeptide (residues 48–57) of HIV-1C, N-terminal HiLyte Fluor 488 tag]”, the “uptake in dose response” value (293T cells; 293T and THP1 cells, increasing concentrations of CPP, flow cytometry) is reported as “reduced uptake”, the “effect of soluble heparin on CPP uptake” value (293T cells) is reported as “dose-dependent inhibition of uptake” and the “decrease of CPP uptake at 4 °C compared with 37 °C” value (293T cells; 293T cells, flow cytometry) is reported as 50% and ~ 50%.

For “Tat-B*: Tat-B variant with R7N and K12N mutations and C-terminal myc tag”, the “TNFα protein levels in supernatants of Tat-treated microglia” value (C20 microglial cells) was 19.2 ng/mL, the “inflammatory cytokine gene transcripts IL-6, IL-8, IL-1β and CXCL1” value [3] was “higher levels” and the “appearance of neuronal processes (dendrites and axons)” value [4] was “shorter and thinner”.

heparin was tested, and the “concentration sufficient to diminish transcellular transactivation of extracellular Tat to near background levels” value [1] was 10 µg/mL.

B1: Tat-B-49AAA51: Tat-B with triple alanine substitution in residues 49-RKK-51 (protein, UniProt P04608 1-86, looked up, variant R49A K50A K51A)
Protein Tat: MEPVDPRLEPWKHPGSQPKTACTNCYCKKCCFHCQVCFITKALGISYGAAARRQRRRAHQNSQTHQASLSKQPTSQPRGDPTGPKE
B1 was tested, and the “transcriptional activity relative to TatB-WT” value [5] was 10% and the “decrease of luciferase output upon direct transfection” value ([5]; TZM-bl cells directly transfected, relative to Tat-B-WT) was “approximately 90%”.
